Assay results published in paper PMC9130233, “An inhibitor of RORγ for chronic pulmonary obstructive disease treatment” (Scientific Reports, 2022).
“And” between values parts separate entries of the source, which are not always exact repeats. Equal entries are not always repeated. Where two headings read alike, the source gives them in different places.

Legend:
[1] = Drug concentrations on day-8 in CS-model mice after 7-day intranasal treatment; type: in vivo; settings: C57BL/6, mouse, other: intranasal; for concentration at 1 h: CS exposed mice
Protocol: Additionally, after 7-day intranasal treatment with PCCR-1 in the CS-model in mice as described above, blood, BAL fluid and lung tissues were collected on day-8 approximately 1 h after the last treatment dose for estimating the drug concentrations for PK-PD correlation.

[2] = target: non RORγ isoforms and other major nuclear receptors; experiment: TR-FRET binding assays, other ROR isoforms and major nuclear receptors (summary)
Description: (§1) Based on the homology of the ligand binding domains, 3 different isoforms of ROR (hRORα, hRORβ and hRORγ) are reported. Small variations in the LBD regions possibly lead to differences in competitive binding between the nuclear receptors of the ROR isoforms (Fig. 1b). Similar to the assessment of RORγ binding assay, TR-FRET binding assays were also used to assess the affinity of PCCR-1 for other ROR isoforms. […] This was reconfirmed in cellular functional assays for the selected isoforms and nuclear receptors using Gal4 DBD with luciferase reporter system from Indigo (PA, USA). […] In addition, both cellular agonist and antagonist effects as well as for enzyme activity were evaluated with a known reference compound for each target, using a radiolabeled method (Eurofins Cerep, France, Table 1).
For selectivity, the ROR isoforms RORα, FXR, LXRα, LXRβ, RXR, RARα were incubated with compound for 60 min at 22 °C followed by detection mix containing respective agonist (All trans retinoic acid for RARα, T0901317 for LXRα, LXRβ, 9-cis Retinoic acid for RXR, GW-4064 for FXR) and coactivator peptide (FD22 for RORα, PGC1α for RXR, RARα, TRAP220 for LXRα, LXRβ, SRC2-2 for FXR) and Tb-anti GST antibody prepared in assay buffer were added into a 384-well white plate. […]

[3] = tested on: IL-17A release in human PBMC; experiment: IL-17A release, human PBMC under Th17 polarization conditions; type: cell-based; settings: human PBMC under Th17 polarization condition, n = 2; read-out: hIL-17 (IL-17A) IC50
Protocol: (§2) An increase in the levels of Th17 dependent cytokine in the peripheral blood of COPD patients as compared to the Th1 and Th2 dependent cytokines has been well documented in a subset of COPD patients. A comparative study was performed under TCR activating conditions to evaluate the potencies of PCCR-1 for inhibition across Th1, Th2 and Th17 dependent cytokines using hPBMCs.
(§3) Human whole blood from healthy subjects were procured from Clinical Research Unit, Sanpada. Clinical Research Center Glenmark (Plot No. D, 508, Turbhe, TTC Industrial Area, MIDC, Sanpada, Navi Mumbai, Maharashtra 400705, India). PBMCs were isolated using heparinized blood with Ficoll Histopaque. Briefly, the cells were seeded in 96-well plate pre-coated with human anti-CD3 mAb (10 µg/mL), post 30 min of compound treatment cells were stimulated with human anti-CD28 mAb (2 µg/mL). After 72 h of culture, the supernatant was collected for Th1/Th2 cytokines; IFN-γ, IL-2, IL-4 and IL-10 and measured by ELISA. For Th17 polarization assay, the following cytokine cocktail was used: IL-1β (10 ng/ml), IL-23(10 ng/ml), IL-6 (50 ng/ml), TGF-β1 (3 ng/ml), IL-2 (20U/ml) and supernatants were used for measuring IL-17 and IL-22 by ELISA.

LXRβ = tested on: T1, LXRβ; experiment: TR-FRET selectivity binding assay, LXRβ
T1 construct: purchased Invitrogen
Description: as §1
(§4) For selectivity, the ROR isoforms RORα, FXR, LXRα, LXRβ, RXR, RARα were incubated with compound for 60 min at 22 °C followed by detection mix containing respective agonist (All trans retinoic acid for RARα, T0901317 for LXRα, LXRβ, 9-cis Retinoic acid for RXR, GW-4064 for FXR) and coactivator peptide (FD22 for RORα, PGC1α for RXR, RARα, TRAP220 for LXRα, LXRβ, SRC2-2 for FXR) and Tb-anti GST antibody prepared in assay buffer were added into a 384-well white plate. Reading taken after overnight incubation and the data analysis done as per the protocol mentioned in RORγt-LBD and co-activator ligand binding assay.

FXR = tested on: T2, FXR; experiment: TR-FRET selectivity binding assay, FXR
T2 construct: purchased Invitrogen
Description: as §1, §4

human RORγ = tested on: T3, human RORγ; experiment: Dissociation assay, jump dilution method (TR-FRET), human; type: binding
T3 construct: RORC-LBD region 229-497aa; made in house; host or cells: Escherichia coli BL21-DE3
Protocol: To understand the inverse agonist behavior at the molecular level, interaction with the nuclear receptor RORγ was analyzed in binding assays by estimating its dissociation constant (Koff) and half-life (t1/2). The binding of a ligand stabilizes the conformation of the LBD while binding of a cofactor modifies receptor activity. Binding reversibility was evaluated by adding an excess of competing ligand in the FRET assay and evaluating the displacement of the tracer with inhibitor. Binding of the PCCR-1 with the LBD caused reduction in FRET on antibody addition forming a GST (Glutathione S-transferases) tagged RORγ-antibody complex. The dissociation assay was performed using the jump dilution method with PCCR-1 at a concentration showing maximum binding potency or IC90. The dissociation was tested on addition of an excess of a competitive ligand, the tracer.

[4] = tested on: IL-22 release in human PBMC; experiment: IL-22 release, human PBMC under Th17 polarization conditions; type: cell-based; settings: human PBMC under Th17 polarization condition
Protocol: as §2, §3

RXR = experiment: TR-FRET selectivity binding assay, RXR
Description: as §1, §4

[5] = tested on: IL-17 release from COPD patient PBMCs; experiment: IL-17 release, PBMC from COPD patients; type: cell-based; settings: Homo sapiens, TCR stimulated, n = 16, read-out: IL-17 IC50, COPD patient's sample: PBMC
Protocol: Whole blood and BAL samples from COPD patients were obtained from Multispecialty hospital, Mumbai post approval from ethics committee and informed consent of patients. 30–40 mL Broncho alveolar lavage (BALf) was collected per patient and stored in ice. Blood was collected in heparin vaccutainer as per approved protocol. Both the samples were processed within 2 h of collection. BALF was passed through 100-µm and 40-µm cell strainer to remove debris and mucus, the samples were centrifuged and the cells were re-suspended in RPMI 1640 complete medium. PBMCs from blood were isolated using Histopaque-1077 by density gradient centrifugation. Isolated BAL cells and PBMCs were seeded in 96 well coated with 10 µg/ml anti-CD3 and 2 µg/ml anti-CD2. Cells were further treated with different concentration of test compound for 60 min followed by stimulation with 20 µg/ml anti-CD28 and incubated for 48–72 h. The supernatant was used for estimating IL-17 by ELISA.

## CCn1c(C(C)(C)Oc2ccc(F)cc2F)nc2cc(NC(=O)Cc3ccc(S(=O)(=O)CC)cc3)ccc21 [PCCR-1]
[1]; BAL fluid, day-8, intranasal 1 µg/animal, read-out: Total concentration BAL fluid
  concentration at 1 h: 25.7 nM
[1]; BAL fluid, day-8, intranasal 10 µg/animal, read-out: Total concentration BAL fluid
  concentration at 1 h: 160 nM
[1]; BAL fluid, day-8, intranasal 30 µg/animal, read-out: Total concentration BAL fluid
  concentration at 1 h: 390 nM
[1]; BAL fluid, day-8, intranasal 50 µg/animal, read-out: Total concentration BAL fluid
  concentration at 1 h: 779 nM
[1]; BAL fluid, day-8, intranasal 100 µg/animal, read-out: Total concentration BAL fluid
  concentration at 1 h: 1320 nM
[1]; lung, day-8, intranasal 1 µg/animal, read-out: Total concentration Lung
  concentration at 1 h: 5480 nM
[1]; lung, day-8, intranasal 10 µg/animal, read-out: Total concentration Lung
  concentration at 1 h: 53600 nM
[1]; lung, day-8, intranasal 30 µg/animal, read-out: Total concentration Lung
  concentration at 1 h: 171000 nM
[1]; lung, day-8, intranasal 50 µg/animal, read-out: Total concentration Lung
  concentration at 1 h: 379000 nM
[1]; lung, day-8, intranasal 100 µg/animal, read-out: Total concentration Lung
  concentration at 1 h: 608000 nM
[1]; lung/plasma, CS-model mice, 7-day intranasal treatment, all tested doses (1 to 100 µg), read-out: concentration in lung as compared to the plasma
  Kp at 1 h: > 1000
[1]; plasma, day-8, intranasal 1 µg/animal, read-out: Total concentration Plasma
  concentration at 1 h: < 1.85 nM
[1]; plasma, day-8, intranasal 10 µg/animal, read-out: Total concentration Plasma
  concentration at 1 h: < 1.85 nM
[1]; plasma, day-8, intranasal 30 µg/animal, read-out: Total concentration Plasma
  concentration at 1 h: 20.6 nM
[1]; plasma, day-8, intranasal 50 µg/animal, read-out: Total concentration Plasma
  concentration at 1 h: 33.2 nM
[1]; plasma, day-8, intranasal 100 µg/animal, read-out: Total concentration Plasma
  concentration at 1 h: 84.7 nM
[2]; TR-FRET, read-out: IC50 for the rest of the non RORγ isoforms and other major nuclear receptors
  IC50: > 10 µM
[2]; relative to RORγ
  fold selectivity over other ROR isoforms / nuclear receptors: > 313.7 fold and > 300 fold
[3]
  IC50: 66.5 nM
LXRβ; 1 µM
  % Inhibition LXRβ: 28.11%
LXRβ; 10 µM
  % Inhibition LXRβ: 46.66%
LXRβ; vs RORg IC50 31.87 nM
  Fold over hRORγ, LXRβ: > 313.7 fold
FXR; 1 µM
  % Inhibition FXR: 21.45%
FXR; 10 µM
  % Inhibition FXR: 19.81%
FXR; vs RORg IC50 31.87 nM
  Fold over hRORγ, FXR: > 313.7 fold
Human RORγ; after 290 min (~ 5 h)
  dissociation: 50%
Human RORγ; human RORγ, jump dilution, PCCR-1 at IC90
  t1/2 (target residence time): 290.4 min
Human RORγ; human, till 3 h of measurement
  absolute dissociation: 50%
[4]
  ceiling effect for IL-22 release inhibition: 60%
[4]; n = 2, read-out: hIL-22 IC50
  IC50: 43.8 nM
RXR; 1 µM
  % Inhibition RXR: 0.00%
RXR; 10 µM
  % Inhibition RXR: 8.24%
RXR; vs RORg IC50 31.87 nM
  Fold over hRORγ, RXR: > 313.7 fold
[5]
  IC50: 336 nM
